The values below are quoted from earlier work in article PMC10006169, “A phase I trial of LXS196, a protein kinase C (PKC) inhibitor, for metastatic uveal melanoma” (British Journal of Cancer, 2023).

One data set concerns 92.1 human UM xenograft. The arrangement: method as in PMID 27507190. The conditions noted are these: doses below MTD; cited from earlier work.
The next data set concerns patients with MUM. The arrangement: method as in PMID 32029634. The conditions noted are these: cited from earlier work.
Data set [1] has as its system UM cell lines containing mutant GNAQ or GNA11. The note with it: cited from earlier work.
Data set [2] concerns HLA-A*02:01-positive patients with first-line MUM. The arrangement: method as in PMID 34551229. The conditions noted are these: cited from earlier work.

In the case of `CN1CCN(c2nc(C3=C(c4c[nH]c5ccccc45)C(=O)NC3=O)c3ccccc3n2)CC1` [AEB071, 3-(1H-Indol-3-yl)-4-[2-(4-methylpiperazin-1-yl)quinazolin-4-yl]pyrrole-2,5-dione], the “Tumour effect as single agent” value in the data set on 92.1 human UM xenograft is on record as “stasis”. Further, the “Estimated median PFS” value in the data set on patients with MUM (95% CI: 2.5–3.6) was 3.5 months. In the data set on patients with MUM (across all doses), the ORR is on record as 3%. Moreover, in the data set with patients with MUM, the Dose-limiting toxicities result is reported as “increased frequency of dose-limiting gastrointestinal (GI) toxicities associated with increasing dose”, the “Median duration of SD” value is listed as 3.75 months and the “Stable disease (SD) as best response” value was 50%. In data set [1], the “Sensitivity of UM cell lines carrying Gα subunit mutations” value was “selective sensitivity”.
Consider “tebentafusp: bispecific fusion protein (Immunocore) designed to redirect T cells to gp100-positive cells”, for which the “Hazard ratio (OS vs Investigator's choice)” value in data set [2] (95% CI: 0.37–0.71) is 0.51. The “1-year OS rate” value in data set [2] (control group 59%) is reported as 73%.
